Assay results from PMC6112376, “Comprehensive Analyses and Prioritization of Tox21 10K Chemicals Affecting Mitochondrial Function by in-Depth Mechanistic Studies” (Environmental Health Perspectives, 2018).
Like-named read-outs stand apart in the source and are kept apart here.

Columns and labels:
[1] = test system: rat primary hepatocytes
[2] = test system: HepG2 cells; details: for IC50: read-out: MMP assays IC50 (µM) HepG2
[3] = test system: HepG2 cells; details: cited from earlier work
[4] = test system: rat primary hepatocytes; experiment: MMP assay in rat primary hepatocytes; details: for IC50: read-out: MMP assays IC50 (µM) Rat Hepatocytes
[5] = read-out: MMP assays IC50 (µM) qHTS-HepG2
[6] = read-out: MMP assays IC50 (µM), qHTS-HepG2
[7] = HepG2 cells, single number from one experiment

Compound | MMP assays efficacy (%) Rat Hepatocytes [1] | MMP assays efficacy (%) HepG2 [2] | IC50 [2] [µM] | MMP assays efficacy (%) qHTS-HepG2 [3] | IC50 [3, 5] [µM] | IC50 [4] [µM] | MMP assays IC50 (µM) HepG2 [2] | IC50 [3, 6] [µM] | IC50 ([4]; Rattus norvegicus, Hepatocyte) [µM] | MMP assays IC50 (µM) qHTS-HepG2 [3] | MMP assays IC50 (µM) Rat Hepatocytes [4] | MMP assays efficacy (%) HepG2 [2, 7] [%] | IC50 [2, 7] [µM] | IC50 ([4]; rat hepatocytes, mean ± SD of three experiments) [µM]
CC1=Nc2ccc3ccccc3c2C1(C)C [1,1,2-Trimethyl-1H-benzo[e]indole] | -100±23% | -96% | 10 | -76±16% | 23.4 ± 4.03 | 34.9 ± 8.48 | – | – | – | – | – | – | – | –
CC(c1ccc(O)cc1)c1ccc(O)cc1 [Bisphenol E] | -56±19% | -147% | 25.1 | -127±8% | 27.6 ± 1.8 | 36.5 ± 19.2 | – | – | – | – | – | – | – | –
Oc1ccc2ccccc2c1N=Nc1ccccc1 [C.I. Solvent yellow 14] | -86±4% | -110% | 15.8 | -69±8% | 5.84 ± 2.06 | 17 ± 10.6 | – | – | – | – | – | – | – | –
Cc1cccc(C)c1OCC(=O)N[C@@H](Cc1ccccc1)[C@@H](O)C[C@H](Cc1ccccc1)NC(=O)[C@H](C(C)C)N1CCCNC1=O [Lopinavir;ABT-738] | -27±0% | inactive | – | -66±16% | – | 15.4 ± 21.8 | inactive | 32.7 ± 1.32 | – | – | – | – | – | –
CC(=Cc1ccccc1)[N+](=O)[O-] [(2-Nitro-1-propenyl)benzene] | -107±47% | inactive | – | -105±10% | 38.6 ± 15.3 | – | inactive | – | 25.9 ± 8.35 | – | – | – | – | –
CCCCCCCCCCn1cc[n+](CCCCCCCCCC)c1C.[Cl-] [1,3-Didecyl-2-methylimidazolium chloride] | -110±29% | -104% | 3.16 | -83±13% | 3.86 ± 4.19 | 26.2 ± 3.35 | – | – | – | – | – | – | – | –
Cl.Cl.Nc1ccc(-c2ccc(N)cc2)cc1 [Benzidine dihydrochloride] | inactive | -67% | 17.7 | inactive | – | – | – | – | – | inactive | inactive | – | – | –
COC(=O)c1c(C)cc(O)c(C)c1O | -81±57% | – | – | – | – | – | – | 16 ± 6.62 | – | – | – | -103 | 25.1 | 30.6 ± 28.4
Nc1nc(N)c(N)c(N)n1.O=S(=O)(O)O [tetra-Aminopyrimidine sulfate] | -55±32% | -87% | 25.1 | -117±30% | – | 42.1 ± 30.6 | – | 18.7 ± 11.4 | – | – | – | – | – | –
CC(C)(C)c1ccc(CN2CCN(C(c3ccccc3)c3ccc(Cl)cc3)CC2)cc1.Cl.Cl (centres unmarked) [Buclizine dihydrochloride] | inactive | inactive | – | -52±10% | 32.2 ± 2.1 | – | inactive | – | – | – | inactive | – | – | –
CC(C)(c1ccccc1)c1ccc(O)c(C(C)(C)c2ccccc2)c1 [2,4-Bis(1-methyl-1-phenylethyl)phenol] | -78±5% | -90% | 2.82 | -108±7% | 3.49 ± 1.51 | 43.9 ± 17.4 | – | – | – | – | – | – | – | –
N=C(N)NN=C(/C=C/c1ccc([N+](=O)[O-])o1)/C=C/c1ccc([N+](=O)[O-])o1 [Nitrovin] | -89±11% | -118% | 5.48 | -94±2% | – | 16.4 ± 1.33 | – | 3.27 ± 0.57 | – | – | – | – | – | –
Cc1c([N+](=O)[O-])c(C)c([N+](=O)[O-])c(C(C)(C)C)c1[N+](=O)[O-] | inactive | -24% | 7.94 | -82±11% | 20.1 ± 6.09 | – | – | – | – | – | inactive | – | – | –
